According to patent US20090143419A1, “METHODS AND COMPOSITIONS FOR CONTROLLING ECTOPARASITES” (HATCHTECH PTY LTD, priority 2005, published 2009):

How the values were obtained:
lice eggs = assay: Time-course in vitro lice egg hatching assay; format: in vivo, clothing lice (Pediculus humanus humanus); details: for % Inhibition of lice egg hatching (maximum over the time-course): 10 mM
[1] = tested on: Plutella xylostella eggs (Waite strain); assay: Effect of added metal ions (FeSO4) on inhibition of Plutella xylostella egg hatching; format: in vivo
Procedure: Within 24 hours of collection the following experimental design was chosen. Batches of eggs were exposed to either 10 mM 6,6′-dimethyl-2,2′-dipyridyl or solvent only (methanol) for 2 seconds. All batches of eggs were allowed to air dry for 20 minutes at room temperature. The eggs were then given a 2 second exposure to FeSO4 at either 10, 5 or 1 mM, air dried and put in the incubator at 24° C. and allowed to hatch over the next 6 days. In addition, a positive control of 10 mM 6,6′-dimethyl-2,2′-dipyridyl was set up in which eggs were exposed to this compound for 2 seconds, air dried and placed in the incubator.
Within 24 hours of collection the following experimental design was chosen. Batches of eggs were exposed to 10 mM 5,5′dimethyl-2,2′-dipyridyl or solvent only (methanol) for 2 seconds. All batches of eggs were allowed to air dry for 20 minutes at room temperature. The eggs were then given a 2 second exposure to FeSO4 at 10, 5 or 1 mM, air dried and put in an incubator at 24° C. and allowed to hatch over the next 6 days. In addition, a positive control of 10 mM, 5,5′-dimethyl-2,2′-dipyridyl was set up in which eggs were exposed to this compound for 2 seconds, air dried and placed in the incubator.

B. ovis eggs = assay: Egg hatching in Bovicola ovis; format: in vivo; details: 10 mM, 10 eggs per replicate
Procedure: B. ovis eggs were collected from the wool of sheep that were infested with this parasite. The eggs were collected using forceps and with the aid of a dissecting microscope and placed in 24 well tissue culture plates in duplicate lots of 10 eggs per replicate. The eggs were then exposed to either methanol alone (solvent control) or the test compounds for either 10 minutes or 1 minute or left as untreated controls before being removed from the wells and placed into individual glass vials containing a diet at the base of the tube. The tubes were placed in plastic containers containing a salt solution (to keep humidity constant at 68%) and the containers maintained at a temperature 32° C. The eggs were monitored for hatching over the following 12 days and % hatch inhibition determined in comparison to the controls.

[2] = tested on: Plutella xylostella eggs (Waite strain); assay: Egg hatching of Plutella xylostella
Procedure: The egg masses were then placed in a humid box at 25 degrees until egg hatch. Control eggs were exposed to absolute methanol as described above. At day 6 post laying the eggs were assessed from the different treatments and the percentage of egg hatch determined relative to the control as shown in Table 9.
Batches of Plutella eggs that were laid on either fine cloth or parafilm were dipped in a specific inhibitor solution for between 2-10 seconds, the excess solution was drained by blotting with dry tissue paper. The egg masses were then placed in a humid box at 25 degrees until egg hatch. Control eggs were exposed to absolute methanol as described above or not treated. At day 6 post laying the eggs were assessed from the different treatments and the percentage of egg hatch determined relative to the controls as shown in Tables 10 and 11.
Batches of Plutella eggs that were laid on fine cloth were dipped in a specific inhibitor solution for approximately 2 seconds, the excess solution was drained by blotting with dry tissue paper. The egg masses were then placed in a humid box at 25 degrees until egg hatch. Control eggs were exposed to absolute methanol as described above or not treated. At day 6 post laying the eggs were assessed from the different treatments and the percentage of egg hatch determined relative to the control as shown in Table 12.
The egg masses were then placed in a humid box at 25 degrees until egg hatch. Control eggs were exposed to absolute ethanol as described above. On day 6 post laying the eggs were assessed from the different treatments and the percentage of egg hatch determined relative to the control.

[3] = tested on: Helicoverpa armigera eggs (Tatura×Toowoomba strains); assay: Egg hatching of Helicoverpa armigera; details: for % Inhibition: relative to control
Procedure: Several hundred Helicoverpa armigera eggs (Tatura×Toowoomba strains) were collected, that had been laid on fine mesh cloth over a 24 hour period.
Batches of Helicoverpa eggs were exposed to a specific inhibitor solution for between 2-10 seconds the excess solution drained by blotting with dry tissue paper. The egg masses were then placed in a humid box at 25 degrees until egg hatch. Control eggs were exposed to absolute methanol as described above.

[4] = Table 17, 10 mM inhibitor alone, (+ve) control
[5] = Table 17, 10 mM inhibitor followed by 2 second exposure to 1 mM FeSO4
[6] = Table 17, 10 mM inhibitor followed by 2 second exposure to 5 mM FeSO4
[7] = Table 17, 10 mM inhibitor followed by 2 second exposure to 10 mM FeSO4
[8] = Table 17, 10 mM inhibitor followed by 2 second exposure to MEOH
[9] = Table 9, 0.001 mM, dipped 2-10 seconds, day 6 post laying
[10] = Table 9, 0.01 mM, dipped 2-10 seconds, day 6 post laying
[11] = Table 9, 0.1 mM, dipped 2-10 seconds, day 6 post laying
[12] = Table 9, 1 mM, dipped 2-10 seconds, day 6 post laying
[13] = Table 9, 10 mM, dipped 2-10 seconds, day 6 post laying
[14] = Table 10, 0.01 mM, eggs laid on cloth
[15] = Table 10, 0.1 mM, eggs laid on cloth
[16] = Table 10, 1 mM, eggs laid on cloth
[17] = Table 10, 1 mM, eggs laid on cloth, relative to controls
[18] = Table 10, 10 mM, eggs laid on cloth
[19] = Table 10, 10 mM, eggs laid on cloth, relative to controls
[20] = Table 11, 0.01 mM, eggs laid on parafilm
[21] = Table 11, 0.1 mM, eggs laid on parafilm
[22] = Table 11, 1 mM, eggs laid on parafilm
[23] = Table 11, 1 mM, eggs laid on parafilm, relative to controls
[24] = Table 11, 10 mM, eggs laid on parafilm
[25] = Table 11, 10 mM, eggs laid on parafilm, relative to controls
[26] = Table 14, 1 mM, exposed 2-10 seconds, day 6 post laying
[27] = Table 14, 10 mM, exposed 2-10 seconds, day 6 post laying
[28] = Table 18, 10 mM inhibitor alone, (+ve) control
[29] = Table 18, 10 mM inhibitor followed by 2 second exposure to 1 mM FeSO4
[30] = Table 18, 10 mM inhibitor followed by 2 second exposure to 5 mM FeSO4
[31] = Table 18, 10 mM inhibitor followed by 2 second exposure to 10 mM FeSO4
[32] = Table 18, 10 mM inhibitor followed by 2 second exposure to MEOH
[33] = Table 12, 0.01 mM, cloth, dipped approximately 2 seconds
[34] = Table 12, 0.1 mM, cloth, dipped approximately 2 seconds
[35] = Table 12, 1 mM, cloth, dipped approximately 2 seconds
[36] = Table 12, 10 mM, cloth, dipped approximately 2 seconds
[37] = Table 13, 0.1 mM, cloth, dipped approximately 2 seconds
[38] = Table 13, 1 mM, cloth, dipped approximately 2 seconds

For `Cc1cccc(-c2cccc(C)n2)n1` [6,6′-dimethyl-2,2′-dipyridyl], the “% Inhibition of lice egg hatching (maximum over the time-course)” value (lice eggs) was 100%, the “H (number of eggs successfully hatched)” value (lice eggs; Table 6, […], per replicate) was 0 and the “Ph (number of eggs partly hatched)” value (lice eggs; Table 6, […], per replicate) was 0. The lice egg hatching (lice eggs; in vivo) was “completely inhibited”, the “% Inhibition” value [1, 4] was 100% and the Number hatched [1, 4] was 0. It also gave a Number unhatched [1, 4] of 44, a Number hatched [1, 5] of 33 and a Number unhatched [1, 5] of 1. The “% Inhibition” value ([1]; Table 17, 10 mM inhibitor followed by 2 second exposure to 1 mM FeSO4, relative to the FeSO4 controls) was 3%, the Number hatched [1, 6] was 25 and the Number unhatched [1, 6] was 0. The “% Inhibition” value ([1]; Table 17, 10 mM inhibitor followed by 2 second exposure to 5 mM FeSO4, relative to the FeSO4 controls) was 0%, the Number hatched [1, 7] was 12 and the Number unhatched [1, 7] was 19. For the same compound, the “% Inhibition” value ([1]; Table 17, 10 mM inhibitor followed by 2 second exposure to 10 mM FeSO4, relative to the FeSO4 controls) was 38%, the Number hatched [1, 8] was 3 and the Number unhatched [1, 8] was 28. The Number unhatched (B. ovis eggs; 1 minute exposure) was 10, the Number unhatched (B. ovis eggs; 10 minute exposure) was 10 and the Number hatched [2, 9] was 11. For the same compound, the Number unhatched [2, 9] was 6, the “% Inhibition” value ([2]; Table 9, 0.001 mM, relative to control (100% MeOH)) was 0% and the Number hatched [2, 10] was 13. The Number unhatched [2, 10] was 7, the “% Inhibition” value ([2]; Table 9, 0.01 mM, relative to control (100% MeOH)) was 0% and the Number hatched [2, 11] was 23. The Number unhatched [2, 11] was 29, the “% Inhibition” value ([2]; Table 9, 0.1 mM, relative to control (100% MeOH)) was 0% and the Number hatched [2, 12] was 0. The Number unhatched [2, 12] was 26, the “% Inhibition” value ([2]; Table 9, 1 mM, relative to control (100% MeOH)) was 100% and the “% Inhibition” value ([2]; Table 9, 1 mM, relative to control (100% MeOH), listed as 6,6′dimethyl-2,2′dipyridyl) was “strong ovicidal effects”. For the same compound, the Number hatched [2, 13] was 0, the Number unhatched [2, 13] was 79 and the “% Inhibition” value ([2]; Table 9, 10 mM, relative to control (100% MeOH)) was 100%. The “% Inhibition” value ([2]; Table 9, 10 mM, relative to control (100% MeOH), listed as 6,6′dimethyl-2,2′dipyridyl) was “strong ovicidal effects”, the Number hatched [2, 14] was 23 and the Number unhatched [2, 14] was 4. For the same compound, the “% Inhibition” value ([2]; Table 10, 0.01 mM, eggs laid on cloth, relative to controls) was 12%, the Number hatched [2, 15] was 49 and the Number unhatched [2, 15] was 49. For the same compound, the “% Inhibition” value ([2]; Table 10, 0.1 mM, eggs laid on cloth, relative to controls) was 0%, the Number hatched [2, 16] was 0 and the Number unhatched [2, 16] was 23. The “% Inhibition” value [2, 17] was 100%, the Number hatched [2, 18] was 0 and the Number unhatched [2, 18] was 53. For the same compound, the “% Inhibition” value [2, 19] was 100%, the Number hatched [2, 20] was 92 and the Number unhatched [2, 20] was 4. For the same compound, the “% Inhibition” value ([2]; Table 11, 0.01 mM, eggs laid on parafilm, relative to controls) was 0%, the Number hatched [2, 21] was 65 and the Number unhatched [2, 21] was 70. For the same compound, the “% Inhibition” value ([2]; Table 11, 0.1 mM, eggs laid on parafilm, relative to controls) was 7%, the Number hatched [2, 22] was 0 and the Number unhatched [2, 22] was 63. The “% Inhibition” value [2, 23] was 100%, the Number hatched [2, 24] was 0 and the “% Inhibition” value [2, 25] was 100%. For the same compound, the “% Inhibition” value ([3]; Table 14, 0.001 mM) was 0%, the “% Inhibition” value ([3]; Table 14, 0.01 mM) was 0% and the “% Inhibition” value ([3]; Table 14, 0.1 mM) was 0%. The Number hatched [3, 26] was 4, the Number unhatched [3, 26] was 140 and the “% Inhibition” value ([3]; Table 14, 1 mM) was 97%. The “% Inhibition” value ([3]; Table 14, 1 mM, listed as 6,6′dimethyl-2,2′dipyridyl) was “significantly inhibit egg hatching”, the Number hatched [3, 27] was 7 and the Number unhatched [3, 27] was 98. For the same compound, the “% Inhibition” value ([3]; Table 14, 10 mM) was 94%, the “% Inhibition” value ([3]; Table 14, 10 mM, listed as 6,6′dimethyl-2,2′dipyridyl) was “significantly inhibit egg hatching” and the Number hatched ([3]; Table 15, 0.1 mM) was 70. It also gave a Number unhatched ([3]; Table 15, 0.1 mM) of 0, a Number hatched ([3]; Table 15, 1 mM) of 2 and a Number unhatched ([3]; Table 15, 1 mM) of 61. For the same compound, the Number hatched ([3]; Table 15, 10 mM) was 3 and the Number unhatched ([3]; Table 15, 10 mM) was 48.

`Cc1ccc(-c2ccc(C)cn2)nc1` [5,5′-dimethyl-2,2′-dipyridyl] was tested, and the “% Inhibition of lice egg hatching (maximum over the time-course)” value (lice eggs) was 100%, the “% Inhibition” value [1, 28] was 100% and the Number hatched [1, 28] was 0. For the same compound, the Number unhatched [1, 28] was 38, the Number hatched [1, 29] was 39 and the Number unhatched [1, 29] was 0. For the same compound, the “% Inhibition” value ([1]; Table 18, 10 mM inhibitor followed by 2 second exposure to 1 mM FeSO4, relative to the FeSO4 only controls) was 0%, the Number hatched [1, 30] was 25 and the Number unhatched [1, 30] was 0. The “% Inhibition” value ([1]; Table 18, 10 mM inhibitor followed by 2 second exposure to 5 mM FeSO4, relative to the FeSO4 only controls) was 0%, the Number hatched [1, 31] was 23 and the Number unhatched [1, 31] was 2. For the same compound, the “% Inhibition” value ([1]; Table 18, 10 mM inhibitor followed by 2 second exposure to 10 mM FeSO4, relative to the FeSO4 only controls) was 8%, the Number hatched [1, 32] was 16 and the Number unhatched [1, 32] was 19. The Number unhatched (B. ovis eggs; 1 minute exposure) was 10, the Number unhatched (B. ovis eggs; 10 minute exposure) was 10 and the Number hatched [2, 16] was 5. The Number unhatched [2, 16] was 22, the “% Inhibition” value [2, 17] was 78% and the Number hatched [2, 18] was 0. The Number unhatched [2, 18] was 21, the “% Inhibition” value [2, 19] was 100% and the Number hatched [2, 22] was 18. For the same compound, the Number unhatched [2, 22] was 151, the “% Inhibition” value [2, 23] was 88% and the Number hatched [2, 24] was 0. For the same compound, the Number unhatched [2, 24] was 142, the “% Inhibition” value [2, 25] was 100% and the Number hatched [2, 33] was 37. It also gave a Number unhatched [2, 33] of 3, a Number hatched [2, 34] of 22 and a Number unhatched [2, 34] of 16. It also gave a Number hatched [2, 35] of 1, a Number unhatched [2, 35] of 45 and a Number hatched [2, 36] of 0. The Number unhatched [2, 36] was 68, the Number hatched [2, 37] was 32 and the Number unhatched [2, 37] was 52. For the same compound, the Number hatched [2, 38] was 2, the Number unhatched [2, 38] was 118 and the Number hatched ([3]; Table 15, 10 mM) was 0. It also gave a Number unhatched ([3]; Table 15, 10 mM) of 42.
